Test results as given in US11572590B2, “Methods for evaluating tumor cell spheroids using 3D microfluidic cell culture device” (Dana-Farber Cancer Institute, Inc., priority 2017, dated 2023).
Like-named read-outs stand apart in the source and are kept apart here.

Columns and labels:
Assay in all cases: SelectScreen Kinase Profiling, single point inhibition and IC50 for off-target kinases
Format in all cases: biochemical
off-target kinases [1] = target: T1, off-target kinases (Homo sapiens, UniProt P51813); conditions: BMX, ZLYTE, ATP Km app
T1 sequence (P51813 1-675): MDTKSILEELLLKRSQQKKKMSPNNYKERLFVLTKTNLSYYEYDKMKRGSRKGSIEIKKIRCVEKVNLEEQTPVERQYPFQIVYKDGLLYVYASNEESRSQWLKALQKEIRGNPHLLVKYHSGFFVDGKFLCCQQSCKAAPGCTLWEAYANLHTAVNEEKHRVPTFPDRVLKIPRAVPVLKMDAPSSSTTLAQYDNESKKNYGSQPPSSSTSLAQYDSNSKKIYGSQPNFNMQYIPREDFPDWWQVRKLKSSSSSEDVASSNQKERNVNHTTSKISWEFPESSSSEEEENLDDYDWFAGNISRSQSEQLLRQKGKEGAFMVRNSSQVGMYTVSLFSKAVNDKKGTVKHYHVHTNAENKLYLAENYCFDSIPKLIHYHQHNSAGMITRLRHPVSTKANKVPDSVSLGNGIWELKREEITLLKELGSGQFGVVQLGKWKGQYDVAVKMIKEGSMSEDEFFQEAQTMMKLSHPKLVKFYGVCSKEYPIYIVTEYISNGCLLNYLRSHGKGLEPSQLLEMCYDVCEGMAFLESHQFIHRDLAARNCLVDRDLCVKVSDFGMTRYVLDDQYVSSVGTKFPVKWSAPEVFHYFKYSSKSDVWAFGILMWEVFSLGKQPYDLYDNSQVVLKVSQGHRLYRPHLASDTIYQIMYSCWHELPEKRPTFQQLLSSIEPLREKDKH

off-target kinases [2] = target: off-target kinases (Homo sapiens, UniProt P51957); conditions: NEK4, ZLYTE, ATP Km app
off-target kinases [3] = target: off-target kinases (Homo sapiens, UniProt P41279); conditions: MAP3K8 (COT), ZLYTE, ATP 100
off-target kinases [4] = target: off-target kinases (Homo sapiens, UniProt O75914); conditions: PAK3, ZLYTE, ATP Km app
off-target kinases [5] = target: off-target kinases (Homo sapiens, UniProt Q9H0K1); conditions: SNF1LK2, ATP Km app, ZLYTE
off-target kinases [6] = target: off-target kinases (Homo sapiens, UniProt P29597); conditions: TYK2, ATP Km app, ZLYTE
off-target kinases [7] = target: off-target kinases (Homo sapiens, UniProt P12931); conditions: SRC, ATP Km app, ZLYTE
Chain of off-target kinases (Homo sapiens, UniProt P12931) (P12931 whole entry): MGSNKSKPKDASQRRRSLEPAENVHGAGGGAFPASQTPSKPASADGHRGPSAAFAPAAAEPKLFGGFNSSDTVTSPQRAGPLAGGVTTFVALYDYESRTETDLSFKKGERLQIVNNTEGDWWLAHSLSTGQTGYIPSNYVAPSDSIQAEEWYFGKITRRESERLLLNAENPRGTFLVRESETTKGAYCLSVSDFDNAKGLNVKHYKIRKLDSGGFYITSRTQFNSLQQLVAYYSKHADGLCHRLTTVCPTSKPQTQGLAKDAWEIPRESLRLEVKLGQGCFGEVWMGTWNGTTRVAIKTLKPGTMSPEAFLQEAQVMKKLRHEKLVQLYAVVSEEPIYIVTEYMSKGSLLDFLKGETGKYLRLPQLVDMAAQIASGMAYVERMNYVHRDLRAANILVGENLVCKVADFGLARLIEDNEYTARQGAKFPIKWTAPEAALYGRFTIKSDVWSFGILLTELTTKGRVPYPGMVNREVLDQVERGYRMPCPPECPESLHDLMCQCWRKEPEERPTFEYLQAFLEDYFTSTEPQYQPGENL

Chain of off-target kinases (Homo sapiens, UniProt P29597) (P29597 whole entry): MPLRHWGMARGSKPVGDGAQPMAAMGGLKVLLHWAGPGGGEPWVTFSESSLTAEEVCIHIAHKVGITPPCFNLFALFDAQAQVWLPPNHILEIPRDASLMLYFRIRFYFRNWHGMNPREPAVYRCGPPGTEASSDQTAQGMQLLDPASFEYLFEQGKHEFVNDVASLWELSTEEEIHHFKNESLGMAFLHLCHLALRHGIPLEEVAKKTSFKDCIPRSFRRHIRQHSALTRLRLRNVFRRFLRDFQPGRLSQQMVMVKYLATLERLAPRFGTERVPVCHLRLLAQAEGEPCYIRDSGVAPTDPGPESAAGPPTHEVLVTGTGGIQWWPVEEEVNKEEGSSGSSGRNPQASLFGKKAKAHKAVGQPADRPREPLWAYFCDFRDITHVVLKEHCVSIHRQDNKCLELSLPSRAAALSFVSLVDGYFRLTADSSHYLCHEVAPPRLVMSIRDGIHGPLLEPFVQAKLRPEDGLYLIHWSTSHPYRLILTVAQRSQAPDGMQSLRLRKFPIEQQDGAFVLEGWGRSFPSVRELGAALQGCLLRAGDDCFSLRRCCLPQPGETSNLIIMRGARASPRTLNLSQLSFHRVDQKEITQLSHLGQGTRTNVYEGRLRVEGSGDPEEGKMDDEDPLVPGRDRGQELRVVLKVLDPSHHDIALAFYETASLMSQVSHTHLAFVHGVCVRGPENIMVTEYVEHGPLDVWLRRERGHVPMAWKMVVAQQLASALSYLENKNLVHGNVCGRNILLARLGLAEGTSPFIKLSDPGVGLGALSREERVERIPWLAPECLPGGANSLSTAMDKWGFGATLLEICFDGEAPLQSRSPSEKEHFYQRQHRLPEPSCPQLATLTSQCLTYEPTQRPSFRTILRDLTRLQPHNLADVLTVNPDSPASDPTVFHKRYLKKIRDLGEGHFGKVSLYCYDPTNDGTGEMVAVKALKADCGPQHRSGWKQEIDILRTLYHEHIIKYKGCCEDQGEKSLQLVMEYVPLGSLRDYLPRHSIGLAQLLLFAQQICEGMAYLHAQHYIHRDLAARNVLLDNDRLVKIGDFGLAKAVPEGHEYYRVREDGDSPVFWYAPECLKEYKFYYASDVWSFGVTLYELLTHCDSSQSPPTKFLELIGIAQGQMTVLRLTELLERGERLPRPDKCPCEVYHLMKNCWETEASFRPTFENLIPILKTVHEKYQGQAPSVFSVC
Chain of off-target kinases (Homo sapiens, UniProt P51957) (P51957 whole entry): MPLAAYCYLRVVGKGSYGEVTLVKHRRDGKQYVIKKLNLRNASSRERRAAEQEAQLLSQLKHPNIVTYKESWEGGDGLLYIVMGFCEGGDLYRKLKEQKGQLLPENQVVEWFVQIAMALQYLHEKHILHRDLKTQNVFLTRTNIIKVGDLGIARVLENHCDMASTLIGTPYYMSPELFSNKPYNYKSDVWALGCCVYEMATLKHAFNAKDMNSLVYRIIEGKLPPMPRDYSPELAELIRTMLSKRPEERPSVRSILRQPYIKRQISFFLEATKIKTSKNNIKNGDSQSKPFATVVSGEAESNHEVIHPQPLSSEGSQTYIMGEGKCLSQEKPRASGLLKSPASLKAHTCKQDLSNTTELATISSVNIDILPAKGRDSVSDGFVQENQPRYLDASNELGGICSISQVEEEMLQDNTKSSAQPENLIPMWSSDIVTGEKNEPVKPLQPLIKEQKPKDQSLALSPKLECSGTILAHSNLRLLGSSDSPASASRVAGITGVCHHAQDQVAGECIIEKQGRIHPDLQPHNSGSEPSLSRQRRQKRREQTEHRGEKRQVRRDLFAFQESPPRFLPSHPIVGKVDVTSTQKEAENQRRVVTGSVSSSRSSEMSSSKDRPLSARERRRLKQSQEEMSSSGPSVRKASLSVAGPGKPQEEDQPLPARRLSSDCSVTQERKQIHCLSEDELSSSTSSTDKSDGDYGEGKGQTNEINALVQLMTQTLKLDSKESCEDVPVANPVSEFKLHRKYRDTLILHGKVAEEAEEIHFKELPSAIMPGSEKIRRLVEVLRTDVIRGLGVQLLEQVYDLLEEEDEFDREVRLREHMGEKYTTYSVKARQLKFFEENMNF
Chain of off-target kinases (Homo sapiens, UniProt P41279) (P41279 whole entry): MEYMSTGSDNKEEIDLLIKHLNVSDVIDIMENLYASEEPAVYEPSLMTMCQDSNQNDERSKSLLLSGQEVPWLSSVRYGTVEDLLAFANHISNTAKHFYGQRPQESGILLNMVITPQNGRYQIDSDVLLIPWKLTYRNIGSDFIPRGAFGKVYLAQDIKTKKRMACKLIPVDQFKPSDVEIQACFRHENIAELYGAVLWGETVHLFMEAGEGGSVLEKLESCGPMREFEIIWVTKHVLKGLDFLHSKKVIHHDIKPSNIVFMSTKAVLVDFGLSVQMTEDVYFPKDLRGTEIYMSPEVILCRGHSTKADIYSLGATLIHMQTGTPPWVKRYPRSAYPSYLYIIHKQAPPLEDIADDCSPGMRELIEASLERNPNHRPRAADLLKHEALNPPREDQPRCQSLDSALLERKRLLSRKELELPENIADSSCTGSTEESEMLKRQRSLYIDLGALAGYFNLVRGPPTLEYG
Chain of off-target kinases (Homo sapiens, UniProt O75914) (O75914 whole entry): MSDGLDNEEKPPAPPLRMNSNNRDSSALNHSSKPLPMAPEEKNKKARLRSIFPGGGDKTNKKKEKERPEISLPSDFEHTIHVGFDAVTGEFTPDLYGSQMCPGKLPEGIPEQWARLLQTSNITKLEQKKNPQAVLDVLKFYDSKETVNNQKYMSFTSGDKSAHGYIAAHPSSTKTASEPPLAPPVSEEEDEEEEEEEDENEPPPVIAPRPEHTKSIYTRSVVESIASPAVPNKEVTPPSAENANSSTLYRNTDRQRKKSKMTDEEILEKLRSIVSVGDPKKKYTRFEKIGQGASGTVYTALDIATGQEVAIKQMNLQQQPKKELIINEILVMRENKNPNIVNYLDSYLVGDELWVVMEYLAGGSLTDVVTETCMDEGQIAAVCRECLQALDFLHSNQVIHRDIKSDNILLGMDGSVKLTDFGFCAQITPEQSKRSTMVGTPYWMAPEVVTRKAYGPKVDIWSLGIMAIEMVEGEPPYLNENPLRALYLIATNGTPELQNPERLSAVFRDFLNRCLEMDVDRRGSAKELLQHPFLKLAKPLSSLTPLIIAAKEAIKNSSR
Chain of off-target kinases (Homo sapiens, UniProt Q9H0K1) (Q9H0K1 whole entry): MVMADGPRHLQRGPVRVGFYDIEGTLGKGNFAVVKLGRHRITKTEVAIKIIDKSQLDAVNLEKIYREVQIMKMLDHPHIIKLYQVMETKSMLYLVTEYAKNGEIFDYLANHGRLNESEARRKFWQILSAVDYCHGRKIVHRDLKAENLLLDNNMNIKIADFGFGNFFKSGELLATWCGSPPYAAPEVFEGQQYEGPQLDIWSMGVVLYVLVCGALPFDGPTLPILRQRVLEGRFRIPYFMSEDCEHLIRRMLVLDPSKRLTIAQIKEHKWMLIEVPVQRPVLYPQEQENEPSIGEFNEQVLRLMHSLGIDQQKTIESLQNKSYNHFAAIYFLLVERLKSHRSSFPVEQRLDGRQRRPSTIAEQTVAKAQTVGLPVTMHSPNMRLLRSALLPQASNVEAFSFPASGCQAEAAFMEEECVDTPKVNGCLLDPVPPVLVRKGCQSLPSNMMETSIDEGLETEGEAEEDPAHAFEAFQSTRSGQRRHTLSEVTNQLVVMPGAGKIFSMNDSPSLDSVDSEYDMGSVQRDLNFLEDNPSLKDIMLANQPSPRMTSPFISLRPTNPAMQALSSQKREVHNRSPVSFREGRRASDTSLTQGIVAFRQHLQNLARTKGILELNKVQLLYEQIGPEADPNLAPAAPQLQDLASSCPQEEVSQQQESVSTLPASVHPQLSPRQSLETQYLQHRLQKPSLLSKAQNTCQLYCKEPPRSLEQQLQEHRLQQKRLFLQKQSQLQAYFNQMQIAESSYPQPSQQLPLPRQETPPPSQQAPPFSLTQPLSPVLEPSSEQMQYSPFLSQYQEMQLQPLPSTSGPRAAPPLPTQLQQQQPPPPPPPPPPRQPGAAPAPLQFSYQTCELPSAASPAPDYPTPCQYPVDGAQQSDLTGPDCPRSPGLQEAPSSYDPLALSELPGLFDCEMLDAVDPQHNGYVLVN

N#Cc1cc(-c2ncnc(Nc3ccc(N4CCN(C5COC5)CC4)cc3)n2)ccc1OC1CCOCC1 [Compound 1, 5-(4-((4-(4-(oxetan-3-yl)piperazin-1-yl)phenyl)amino)-1,3,5-triazin-2-yl)-2-((tetrahydro-2H-pyran-4-yl)oxy)benzonitrile]
inhibition (off-target kinases [1]; read-out: % Inhibition 1): 12%
inhibition (off-target kinases [1]; read-out: % Inhibition 2): 13%
inhibition (off-target kinases [1]; read-out: % Inhibition Avg): 12%
inhibition (off-target kinases [2]; read-out: % Inhibition 1): 23%
inhibition (off-target kinases [2]; read-out: % Inhibition 2): 23%
inhibition (off-target kinases [2]; read-out: % Inhibition Avg): 23%
inhibition (off-target kinases [3]; read-out: % Inhibition 1): 19%
inhibition (off-target kinases [3]; read-out: % Inhibition 2): 11%
inhibition (off-target kinases [3]; read-out: % Inhibition Avg): 15%
inhibition (off-target kinases [4]; read-out: % Inhibition 1): 7%
inhibition (off-target kinases [4]; read-out: % Inhibition 2): 2%
inhibition (off-target kinases [4]; read-out: % Inhibition Avg): 5%
inhibition (off-target kinases [5]; read-out: % Inhibition 1): 88%
inhibition (off-target kinases [5]; read-out: % Inhibition 2): 88%
inhibition (off-target kinases [5]; read-out: % Inhibition Avg): 88%
inhibition (off-target kinases [6]; read-out: % Inhibition 1): 65%
inhibition (off-target kinases [6]; read-out: % Inhibition 2): 64%
inhibition (off-target kinases [6]; read-out: % Inhibition Avg): 64%
inhibition (off-target kinases [7]; read-out: % Inhibition 1): 45%
inhibition (off-target kinases [7]; read-out: % Inhibition 2): 44%
inhibition (off-target kinases [7]; read-out: % Inhibition Avg): 45%
